Data reported in patent publication US20230212225A1, “PEPTIDE COMPOSTIONS AND METHODS FOR TREATING TAUOPATHIES” (AXOLTIS PHARMA, priority 2019, published 2023).
Where a SMILES comes first, the peptide text is derived from it.

Tests used:
[1] = system: Aβ25-35-induced short-term memory deficits; assay: Late-stage efficacy: Y-maze with treatment started at D11; format: in vivo, mice
Method: Seven days after ICV injection of Aβ25-35 peptide (D08), all animals were tested for spontaneous alternation performance in the Y-maze, an index of spatial working memory (short-term memory test). Each mouse was placed at the end of one arm and allowed to move freely through the maze during an 8 min session. An alternation is defined as entries into all three arms on consecutive occasions. The number of maximum alternations is therefore the total number of arm entries minus two and the percentage of alternation is calculated as (actual alternations / maximum alternations) x 100. This parameter includes the percentage of alternation (memory index) (Maurice et al., 1996, 1998; Meunier et al., 2006).
The efficacy of NX210 and NX218 SCO-Spondin derived peptides was therefore assessed during this late-stage physiopathology setting. Specifically, the administrations of NX210, NX218 or vehicle were started at D11 and were repeated once a day until the end of the experiment.
All animals were tested for spontaneous alternation performance in the Y-maze, an index of short-term memory (see Example 3 for method details) from D08 (i.e. pre-treatment values) and then once a week for three weeks (D15, D22, D29).

[2] = system: Aβ25-35-induced spatial working memory deficits; assay: Place learning in the Morris water-maze (MWM), D09-D14; format: in vivo, mice; conditions: IP 2 mg/kg once a day
Method: The examples are using a model of Tauopathies. In this model, mice were injected intracerebroventricularly (ICV) at Day 01 (D01) with Aβ25-35 peptide (or with scrambled-Aβ peptide (Sc.Aβ) for Sham animals). This severe animal model recapitulates modulations of specific biomarkers (including deposits of brain Amyloid Beta1-42 and hyperphosphorylated Tau protein) involved in the physiopathology and the progression of human Tauopathies, as well as strong cognitive deficits (memory loss) as encountered by the patients (Maurice et al., 1996, 1998, 2013; Meunier et al., 2006).
After the Y-Maze and instead of performing the STPA test, some animals performed the Morris Water-Maze (MWM) test in order to assess spatial working memory deficits (a six-day test from D09 to D14). This gold-standard test consists in a circular pool filled with opaque water placed in a room with external cues (sink, contrasted posters, shelves). A platform is immersed under the water surface during acquisition. Training consists in 3 swims per day for 5 days, performed between D09 to D13, with a 20 min inter-trial time. Each mouse is allowed to swim for 90 sec in order to find the platform, and to stay on it for 20 sec.
A probe test (PT) is performed 24 h after the last swim on D14. For the PT, the platform is removed, and each animal is allowed to swim for 60 sec. The start position for each mouse corresponds to one of two positions remote from the platform location in a counterbalanced order. The platform quadrant is named ‘target’ and other quadrants (opposite, adjacent right and adjacent left) are named ‘other’ during the PT. The time spent in each quadrant is recorded. The results are expressed as the percentage of time spent in the target quadrant compared to the mean percentage of time spent in the three other quadrants.
Every day, the latencies to find the platform during the first (swim1), second (swim2), third (swim3), […] trials were monitored and averaged in this six-day experiment (Maurice et al., 2013).

[3] = system: hippocampal CA1 pyramidal neurons; assay: Histological study, cresyl violet CA1 pyramidal neuron counting, D15; format: in vivo, mice
Text: In order to measure neuronal loss in this model (as described by Maurice et al., 2013), a well-known pathological event occurring in patients with AD/Tauopathies, hippocampal neurons were counted in the brain of Sham, Aβ25-35 / vehicle and Aβ25-35 / NX210-treated mice.
To do so, fourteen days after ICV injection of Aβ25-35 or Scrambled peptide (D15) and daily compound administrations of NX210 (IP) or vehicle (IP), mice were anaesthetized by ketamine/xylazine and then transcardially perfused with phosphate buffer solution (PBS, 15 ml at 5 ml/min, pH 7.4) until fluid running clear, followed by a solution of 4% paraformaldehyde (PFA, 25 ml at 5 ml/min) until the fixation tremors disappeared. Brains were removed carefully and kept in 4% PFA at 4° C. for 24-48 h. Brains were then dehydrated through a series of graded ethanol baths to displace the water, and then infiltrated with wax. Finally, the infiltrated brains were embedded into wax blocks and sectioned at […]. Cresyl violet (CV) staining was performed on 9 brain sections per animal, each coronal section separated by 100 µm for CA1 pyramidal neuron counting.

[4] = system: Aβ25-35-induced long-term memory deficits; assay: Step-through passive avoidance test (STPA), D09-D10; format: in vivo, mice
[5] = Pharmacokinetics in human healthy subjects; format: in vivo; conditions: single IV 10 mg/kg
Method: As in animals; PK study of NX210 in Human Healthy subjects was conducted following the measurement of its cyclic form NX218.

[6] = D08, pre-treatment value, IP 2 mg/kg once a day started at D11
[7] = D15, IP 2 mg/kg once a day started at D11
[8] = D22, IP 2 mg/kg once a day started at D11
[9] = D29, IP 2 mg/kg once a day started at D11
[10] = IP 2 mg/kg every other day (1/2d)
[11] = IP 3.75 mg/kg every other day (1/2d)
[12] = measured as NX218, maximum, N=3
[13] = measured as NX218, minimum, N=3

N=C(N)NCCC[C@H](NC(=O)[C@H](CO)NC(=O)[C@H](CS)NC(=O)[C@H](CO)NC(=O)[C@H](CO)NC(=O)[C@H](Cc1c[nH]c2ccccc12)NC(=O)CNC(=O)[C@H](CO)NC(=O)[C@@H](N)Cc1c[nH]c2ccccc12)C(=O)N[C@@H](CO)C(=O)N[C@@H](CS)C(=O)NCC(=O)O [NX210, W-S-G-W-S-S-C-S-R-S-C-G] (H-WSGWSSCSRSCG-OH; N-terminus and C-terminus assumed)
Y-maze (D08) % (Sc.Aβ / D11 vhc = 100) [1, 6]: 55%
Y-maze (D08) Mean, percentage of alternation [1, 6]: 39.17%
effect on short-term working memory deficits at D15, in words ([1]; D15, five daily administrations, 2 mg/kg started at D11): tendency to rescue
Y-maze (D15) % (Sc.Aβ / D11 vhc = 100) [1, 7]: 71%
Y-maze (D15) Mean, percentage of alternation [1, 7]: 55.55%
effect on working memory deficits at D22, in words ([1]; D22, 12 day-treatment, 2 mg/kg started at D11): significantly rescued
Y-maze (D22) % (Sc.Aβ / D11 vhc = 100) [1, 8]: 82%
Y-maze (D22) Mean, percentage of alternation [1, 8]: 60.08%
effect on memory deficits at D29, in words ([1]; D29, 19 day-treatment, 2 mg/kg started at D11): fully restored
Y-maze (D29) % (compared to Sham group) [1, 9]: 97%
Y-maze (D29) Mean, percentage of alternation [1, 9]: 74.73%
effect on learning profile and spatial memory deficits (MWM), in words [2]: significantly rescued
MWM - Probe test, mean percentage of time spent in the three other quadrants (Other) ([2]; D14): 20.30%
MWM - Learning profile, Mean time spent to find the platform (last block, heading missing) ([2]; fifth training day): 24.25 s
MWM - Learning profile - Day 1, Mean time spent to find the platform ([2]; training Day 1): 79.67 s
MWM - Learning profile - Day 2, Mean time spent to find the platform ([2]; training Day 2): 53.58 s
MWM - Learning profile - Day 3, Mean time spent to find the platform ([2]; training Day 3): 35.83 s
MWM - Learning profile - Day 4, Mean time spent to find the platform ([2]; training Day 4): 25.92 s
effect on neuronal loss in the hippocampus, in words ([3]; 2 mg/kg): significantly prevents
Histology %, percentage of control (Sc.Aβ / Vhc) ([3]; IP 2 mg/kg once a day, D15): 93%
Histology Mean ([3]; IP 2 mg/kg once a day, D15): 311.84 number of neurons per mm of tissue
EL % (Sc.Aβ / Vhc = 100) ([4]; IP 0.1 mg/kg once a day): 449%
EL Mean, escape latency, retention session ([4]; IP 0.1 mg/kg once a day): 89.42 s
STL % (Sc.Aβ / Vhc = 100) ([4]; IP 0.1 mg/kg once a day): 42%
STL Mean, step-through latency, retention session ([4]; IP 0.1 mg/kg once a day): 118.92 s
EL % (Sc.Aβ / Vhc = 100) ([4]; IP 1 mg/kg once a day): 267%
EL Mean, escape latency, retention session ([4]; IP 1 mg/kg once a day): 53.08 s
STL % (Sc.Aβ / Vhc = 100) ([4]; IP 1 mg/kg once a day): 63%
STL Mean, step-through latency, retention session ([4]; IP 1 mg/kg once a day): 177.92 s
EL % (Sc.Aβ / Vhc = 100) [4, 10]: 110%
EL Mean, escape latency, retention session [4, 10]: 22.00 s
STL % (Sc.Aβ / Vhc = 100) [4, 10]: 93%
STL Mean, step-through latency, retention session [4, 10]: 263.33 s
EL % (Sc.Aβ / Vhc = 100) ([4]; IP 2 mg/kg once a day): 156%
EL Mean, escape latency, retention session ([4]; IP 2 mg/kg once a day): 31.17 s
STL % (Sc.Aβ / Vhc = 100) ([4]; IP 2 mg/kg once a day): 88%
STL Mean, step-through latency, retention session ([4]; IP 2 mg/kg once a day): 248.33 s
EL % (Sc.Aβ / Vhc = 100) [4, 11]: 119%
EL Mean, escape latency, retention session [4, 11]: 23.75 s
STL % (Sc.Aβ / Vhc = 100) [4, 11]: 94%
STL Mean, step-through latency, retention session [4, 11]: 264.75 s
EL % (Sc.Aβ / Vhc = 100) ([4]; IP 3.75 mg/kg once a day): 139%
EL Mean, escape latency, retention session ([4]; IP 3.75 mg/kg once a day): 27.67 s
STL % (Sc.Aβ / Vhc = 100) ([4]; IP 3.75 mg/kg once a day): 90%
STL Mean, step-through latency, retention session ([4]; IP 3.75 mg/kg once a day): 255.50 s
effect on contextual long-term memory deficits (STL and EL), in words ([4]; NX210 2 and 3.75 mg/kg, NX218 1, 2 and 3.75 mg/kg, once a day or every other day): fully rescued
effect on contextual long-term memory deficits (STL and EL) at subactive dose, in words ([4]; once a day, NX210 0.1 mg/kg, NX218 0.1 mg/kg, DPZ 0.25 mg/kg): do not impede
Kel (clearance rate constant), AM ([5]; measured as NX218, arithmetic mean, N=3): 0.0348 I/min
Kel (clearance rate constant), GM ([5]; measured as NX218, geometric mean, N=3): 0.0347 I/min
AUClast, Max ([5]; measured as NX218, maximum): 7850 ng·min/mL
Cmax, Max ([5]; measured as NX218, maximum): 1040 ng/mL
Tmax, Max ([5]; measured as NX218, maximum): 12.00 min
AUC∞, Max [5, 12]: 7920 ng·min/mL
Kel (clearance rate constant), Max [5, 12]: 0.0372 I/min
t½, Max [5, 12]: 22.5 min
Kel (clearance rate constant), Median ([5]; measured as NX218, median, N=3): 0.0365 I/min
AUClast, Min ([5]; measured as NX218, minimum): 1470 ng·min/mL
Cmax, Min ([5]; measured as NX218, minimum): 185 ng/mL
Tmax ([5]; measured as NX218, minimum): 6.00 min
AUC∞, Min [5, 13]: 2800 ng·min/mL
Kel (clearance rate constant), Min [5, 13]: 0.0308 I/min
t½ [5, 13]: 18.6 min
